Assay results reported in BigSolDB 2.1.

O=c1[nH]c(=O)n(C2CCCO2)cc1F (centres undefined)
solubility (mole fraction)
Conditions | 273.15 K | 278.15 K | 283.15 K | 288.15 K | 293.15 K | 298.15 K | 303.15 K | 308.15 K | 313.15 K
in acetone | 0.00932 | 0.0115 | 0.014 | 0.0168 | 0.0196 | 0.0233 | 0.0277 | 0.0326 | 0.0388
in ethanol | 0.00118 | 0.00152 | 0.00198 | 0.00253 | 0.00318 | 0.00402 | 0.00506 | 0.00629 | 0.00767
in ethyl acetate | 0.00607 | 0.00718 | 0.00837 | 0.00957 | 0.0109 | 0.0122 | 0.0137 | 0.0153 | 0.0175
in isopropanol | 0.00086 | 0.00109 | 0.00139 | 0.00179 | 0.00227 | 0.00286 | 0.00358 | 0.00444 | 0.00547
in methanol | 0.00362 | 0.00428 | 0.00495 | 0.00592 | 0.00692 | 0.00802 | 0.00925 | 0.0107 | 0.0126
in n-propanol | 0.00112 | 0.00141 | 0.00176 | 0.00223 | 0.00274 | 0.00343 | 0.0042 | 0.00516 | 0.00618
